{"source": "BigSolDB 2.1", "data": [{"smiles": "NC(=O)c1cccnc1Cl", "values": [{"measurement": "solubility (mole fraction)", "setting": "in 1,4-dioxane, 288.15 K", "value": 0.00632}, {"measurement": "solubility (mole fraction)", "setting": "in 1,4-dioxane, 293.15 K", "value": 0.0077}, {"measurement": "solubility (mole fraction)", "setting": "in 1,4-dioxane, 298.15 K", "value": 0.00958}, {"measurement": "solubility (mole fraction)", "setting": "in 1,4-dioxane, 303.15 K", "value": 0.0118}, {"measurement": "solubility (mole fraction)", "setting": "in 1,4-dioxane, 308.15 K", "value": 0.0136}, {"measurement": "solubility (mole fraction)", "setting": "in 1,4-dioxane, 313.15 K", "value": 0.0168}, {"measurement": "solubility (mole fraction)", "setting": "in 1,4-dioxane, 318.15 K", "value": 0.02}, {"measurement": "solubility (mole fraction)", "setting": "in 1,4-dioxane, 323.15 K", "value": 0.0244}, {"measurement": "solubility (mole fraction)", "setting": "in 2-ethoxyethanol, 278.15 K", "value": 0.0124}, {"measurement": "solubility (mole fraction)", "setting": "in 2-ethoxyethanol, 283.15 K", "value": 0.0154}, {"measurement": "solubility (mole fraction)", "setting": "in 2-ethoxyethanol, 288.15 K", "value": 0.0182}, {"measurement": "solubility (mole fraction)", "setting": "in 2-ethoxyethanol, 293.15 K", "value": 0.0224}, {"measurement": "solubility (mole fraction)", "setting": "in 2-ethoxyethanol, 298.15 K", "value": 0.0267}, {"measurement": "solubility (mole fraction)", "setting": "in 2-ethoxyethanol, 303.15 K", "value": 0.0311}, {"measurement": "solubility (mole fraction)", "setting": "in 2-ethoxyethanol, 308.15 K", "value": 0.0375}, {"measurement": "solubility (mole fraction)", "setting": "in 2-ethoxyethanol, 313.15 K", "value": 0.0437}, {"measurement": "solubility (mole fraction)", "setting": "in 2-ethoxyethanol, 318.15 K", "value": 0.0524}, {"measurement": "solubility (mole fraction)", "setting": "in 2-ethoxyethanol, 323.15 K", "value": 0.0615}, {"measurement": "solubility (mole fraction)", "setting": "in 2-methoxyethanol, 278.15 K", "value": 0.0205}, {"measurement": "solubility (mole fraction)", "setting": "in 2-methoxyethanol, 283.15 K", "value": 0.0246}, {"measurement": "solubility (mole fraction)", "setting": "in 2-methoxyethanol, 288.15 K", "value": 0.0293}, {"measurement": "solubility (mole fraction)", "setting": "in 2-methoxyethanol, 293.15 K", "value": 0.0352}, {"measurement": "solubility (mole fraction)", "setting": "in 2-methoxyethanol, 298.15 K", "value": 0.0413}, {"measurement": "solubility (mole fraction)", "setting": "in 2-methoxyethanol, 303.15 K", "value": 0.0478}, {"measurement": "solubility (mole fraction)", "setting": "in 2-methoxyethanol, 308.15 K", "value": 0.0542}, {"measurement": "solubility (mole fraction)", "setting": "in 2-methoxyethanol, 313.15 K", "value": 0.0642}, {"measurement": "solubility (mole fraction)", "setting": "in 2-methoxyethanol, 318.15 K", "value": 0.0747}, {"measurement": "solubility (mole fraction)", "setting": "in 2-methoxyethanol, 323.15 K", "value": 0.0856}, {"measurement": "solubility (mole fraction)", "setting": "in DMAc, 278.15 K", "value": 0.132}, {"measurement": "solubility (mole fraction)", "setting": "in DMAc, 283.15 K", "value": 0.141}, {"measurement": "solubility (mole fraction)", "setting": "in DMAc, 288.15 K", "value": 0.152}, {"measurement": "solubility (mole fraction)", "setting": "in DMAc, 293.15 K", "value": 0.163}, {"measurement": "solubility (mole fraction)", "setting": "in DMAc, 298.15 K", "value": 0.175}, {"measurement": "solubility (mole fraction)", "setting": "in DMAc, 303.15 K", "value": 0.187}, {"measurement": "solubility (mole fraction)", "setting": "in DMAc, 308.15 K", "value": 0.199}, {"measurement": "solubility (mole fraction)", "setting": "in DMAc, 313.15 K", "value": 0.213}, {"measurement": "solubility (mole fraction)", "setting": "in DMAc, 318.15 K", "value": 0.227}, {"measurement": "solubility (mole fraction)", "setting": "in DMAc, 323.15 K", "value": 0.24}, {"measurement": "solubility (mole fraction)", "setting": "in DMF, 278.15 K", "value": 0.0981}, {"measurement": "solubility (mole fraction)", "setting": "in DMF, 283.15 K", "value": 0.107}, {"measurement": "solubility (mole fraction)", "setting": "in DMF, 288.15 K", "value": 0.115}, {"measurement": "solubility (mole fraction)", "setting": "in DMF, 293.15 K", "value": 0.126}, {"measurement": "solubility (mole fraction)", "setting": "in DMF, 298.15 K", "value": 0.137}, {"measurement": "solubility (mole fraction)", "setting": "in DMF, 303.15 K", "value": 0.149}, {"measurement": "solubility (mole fraction)", "setting": "in DMF, 308.15 K", "value": 0.161}, {"measurement": "solubility (mole fraction)", "setting": "in DMF, 313.15 K", "value": 0.175}, {"measurement": "solubility (mole fraction)", "setting": "in DMF, 318.15 K", "value": 0.188}, {"measurement": "solubility (mole fraction)", "setting": "in DMF, 323.15 K", "value": 0.202}, {"measurement": "solubility (mole fraction)", "setting": "in ethanol, 278.15 K", "value": 0.00303}, {"measurement": "solubility (mole fraction)", "setting": "in ethanol, 283.15 K", "value": 0.00366}, {"measurement": "solubility (mole fraction)", "setting": "in ethanol, 288.15 K", "value": 0.00443}, {"measurement": "solubility (mole fraction)", "setting": "in ethanol, 293.15 K", "value": 0.00539}, {"measurement": "solubility (mole fraction)", "setting": "in ethanol, 298.15 K", "value": 0.00698}, {"measurement": "solubility (mole fraction)", "setting": "in ethanol, 303.15 K", "value": 0.00821}, {"measurement": "solubility (mole fraction)", "setting": "in ethanol, 308.15 K", "value": 0.0101}, {"measurement": "solubility (mole fraction)", "setting": "in ethanol, 313.15 K", "value": 0.0124}, {"measurement": "solubility (mole fraction)", "setting": "in ethanol, 318.15 K", "value": 0.0147}, {"measurement": "solubility (mole fraction)", "setting": "in ethanol, 323.15 K", "value": 0.0178}, {"measurement": "solubility (mole fraction)", "setting": "in ethylene glycol, 278.15 K", "value": 0.00783}, {"measurement": "solubility (mole fraction)", "setting": "in ethylene glycol, 283.15 K", "value": 0.00946}, {"measurement": "solubility (mole fraction)", "setting": "in ethylene glycol, 288.15 K", "value": 0.0114}, {"measurement": "solubility (mole fraction)", "setting": "in ethylene glycol, 293.15 K", "value": 0.0136}, {"measurement": "solubility (mole fraction)", "setting": "in ethylene glycol, 298.15 K", "value": 0.0167}, {"measurement": "solubility (mole fraction)", "setting": "in ethylene glycol, 303.15 K", "value": 0.0201}, {"measurement": "solubility (mole fraction)", "setting": "in ethylene glycol, 308.15 K", "value": 0.024}, {"measurement": "solubility (mole fraction)", "setting": "in ethylene glycol, 313.15 K", "value": 0.0283}, {"measurement": "solubility (mole fraction)", "setting": "in ethylene glycol, 318.15 K", "value": 0.034}, {"measurement": "solubility (mole fraction)", "setting": "in ethylene glycol, 323.15 K", "value": 0.0403}, {"measurement": "solubility (mole fraction)", "setting": "in methanol, 278.15 K", "value": 0.00747}, {"measurement": "solubility (mole fraction)", "setting": "in methanol, 283.15 K", "value": 0.00893}, {"measurement": "solubility (mole fraction)", "setting": "in methanol, 288.15 K", "value": 0.0104}, {"measurement": "solubility (mole fraction)", "setting": "in methanol, 293.15 K", "value": 0.0122}, {"measurement": "solubility (mole fraction)", "setting": "in methanol, 298.15 K", "value": 0.0148}, {"measurement": "solubility (mole fraction)", "setting": "in methanol, 303.15 K", "value": 0.0171}, {"measurement": "solubility (mole fraction)", "setting": "in methanol, 308.15 K", "value": 0.0204}, {"measurement": "solubility (mole fraction)", "setting": "in methanol, 313.15 K", "value": 0.0238}, {"measurement": "solubility (mole fraction)", "setting": "in methanol, 318.15 K", "value": 0.0278}, {"measurement": "solubility (mole fraction)", "setting": "in methanol, 323.15 K", "value": 0.0324}, {"measurement": "solubility (mole fraction)", "setting": "in methyl acetate, 278.15 K", "value": 0.00215}, {"measurement": "solubility (mole fraction)", "setting": "in methyl acetate, 283.15 K", "value": 0.00263}, {"measurement": "solubility (mole fraction)", "setting": "in methyl acetate, 288.15 K", "value": 0.00331}, {"measurement": "solubility (mole fraction)", "setting": "in methyl acetate, 293.15 K", "value": 0.0041}, {"measurement": "solubility (mole fraction)", "setting": "in methyl acetate, 298.15 K", "value": 0.00506}, {"measurement": "solubility (mole fraction)", "setting": "in methyl acetate, 303.15 K", "value": 0.00587}, {"measurement": "solubility (mole fraction)", "setting": "in methyl acetate, 308.15 K", "value": 0.00699}, {"measurement": "solubility (mole fraction)", "setting": "in methyl acetate, 313.15 K", "value": 0.00885}, {"measurement": "solubility (mole fraction)", "setting": "in methyl acetate, 318.15 K", "value": 0.0105}, {"measurement": "solubility (mole fraction)", "setting": "in methyl acetate, 323.15 K", "value": 0.0127}, {"measurement": "solubility (mole fraction)", "setting": "in water, 278.15 K", "value": 0.00081}, {"measurement": "solubility (mole fraction)", "setting": "in water, 283.15 K", "value": 0.00102}, {"measurement": "solubility (mole fraction)", "setting": "in water, 288.15 K", "value": 0.00127}, {"measurement": "solubility (mole fraction)", "setting": "in water, 293.15 K", "value": 0.00157}, {"measurement": "solubility (mole fraction)", "setting": "in water, 298.15 K", "value": 0.00193}, {"measurement": "solubility (mole fraction)", "setting": "in water, 303.15 K", "value": 0.00237}, {"measurement": "solubility (mole fraction)", "setting": "in water, 308.15 K", "value": 0.00291}, {"measurement": "solubility (mole fraction)", "setting": "in water, 313.15 K", "value": 0.00351}, {"measurement": "solubility (mole fraction)", "setting": "in water, 318.15 K", "value": 0.00437}, {"measurement": "solubility (mole fraction)", "setting": "in water, 323.15 K", "value": 0.00546}]}]}
